Results reported in PubChem BioAssay (NCI).
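Interpolation was linear, between the two tested concentrations surrounding the appropriate level; five concentrations were tested over 48 hours in 96-well plates. GI50 = concentration required for 50% inhibition of growth. TGI marks complete inhibition of growth.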

How the values were obtained:
Experiment in all cases: inhibition of tumour cell growth, NCI panel, 48 h
COLO 205 colon = test system: COLO 205 colon
HS 578T breast = test system: HS 578T breast
K-562 leukemia = test system: K-562 leukemia
MDA-MB-435 = test system: MDA-MB-435
MDA-N = test system: MDA-N
MOLT-4 leukemia = test system: MOLT-4 leukemia
NCI-H23 lung = test system: NCI-H23 lung
OVCAR-8 ovarian = test system: OVCAR-8 ovarian
SF-268 CNS = test system: SF-268 CNS
TK-10 renal = test system: TK-10 renal

Structure (SMILES)	TGI (COLO 205 colon)	TGI (HS 578T breast)	TGI (K-562 leukemia)	TGI (MDA-MB-435)	TGI (MDA-N)	TGI (MOLT-4 leukemia)	TGI (NCI-H23 lung)	TGI (OVCAR-8 ovarian)	TGI (SF-268 CNS)	TGI (TK-10 renal)	GI50 (COLO 205 colon)
COC(=O)C(CSSC[C@H](N/C(C)=C/C(C)=O)C(=O)OC)N/C(C)=C/C(C)=O (stereo partly specified)	> 100 µM	52.9 µM	> 100 µM	> 100 µM	> 100 µM	> 100 µM	> 100 µM	0.0686 µM	> 100 µM	39.1 µM	–
Cc1c(NC(=O)CSC(=S)N2CCN(Cc3ccccc3)CC2)c(=O)n(-c2ccccc2)n1C	> 100 µM	> 100 µM	> 100 µM	> 100 µM	> 100 µM	> 100 µM	> 100 µM	> 100 µM	> 100 µM	> 100 µM	–
CCOc1cc(C2CC(c3ccc(NS(=O)(=O)c4cc([N+](=O)[O-])ccc4C)cc3)=NN2c2ccc([N+](=O)[O-])cc2[N+](=O)[O-])ccc1O (stereo unspecified)	52.4 µM	57.4 µM	> 100 µM	> 100 µM	39.5 µM	> 100 µM	42.9 µM	49 µM	43.9 µM	33.7 µM	–
CC1(C)CC(C)(C)C1=NNC(N)=O	> 100 µM	> 100 µM	> 100 µM	> 100 µM	> 100 µM	> 100 µM	> 100 µM	> 100 µM	> 100 µM	> 100 µM	–
COc1ccc2c(c1)c(CC(=O)O)c(C)n2C(=O)c1ccc(Cl)cc1	> 100 µM	> 100 µM	> 100 µM	> 100 µM	> 100 µM	> 100 µM	> 100 µM	> 100 µM	> 100 µM	> 100 µM	–
CC1CC/C(=C\c2ccc(Cl)cc2)C2OC(N)=C(C#N)C(c3ccc(Cl)cc3)=C12 (stereo unspecified)	25.2 µM	49.1 µM	51.8 µM	44.2 µM	32.2 µM	24.2 µM	29.4 µM	27.4 µM	31.2 µM	41.3 µM	–
O=C(Nc1nc2ccccc2s1)c1cc([N+](=O)[O-])ccc1Cl	> 100 µM	15.7 µM	> 100 µM	> 100 µM	> 31.6 µM	9.93 µM	> 43.4 µM	> 45.4 µM	62 µM	> 100 µM	–
Nc1ccccc1CC(O)C(=O)O (stereo unspecified)	> 100 µM	> 100 µM	> 100 µM	> 100 µM	> 100 µM	> 100 µM	> 100 µM	> 100 µM	> 100 µM	> 100 µM	–
CC1(O)CC(=O)c2c(cc3ccc(-c4c5c(c(O)c6c(O)cccc46)C(=O)CC(C)(O)C5)c(O)c3c2O)C1 (stereo unspecified)	0.158 µM	4.4 µM	11.9 µM	1.97 µM	14.2 µM	8.36 µM	1.35 µM	3.76 µM	1.81 µM	10.3 µM	0.0361 µM
CCCCCCCCCCCCCCCCCCNc1ccn(C2OC(COP(=O)(O)OCC3OC(n4cc(F)c(NCCCCCCCCCCCCCCCCCC)nc4=O)CC3O)C(O)C2O)c(=O)n1 (stereo unspecified)	> 100 µM	> 100 µM	> 100 µM	> 100 µM	> 100 µM	> 100 µM	> 100 µM	> 100 µM	> 100 µM	> 100 µM	–
COc1ccc(C(SC2C(O)C(CO)OC2n2ccc(N)nc2=O)(c2ccccc2)c2ccc(OC)cc2)cc1 (stereo unspecified)	28.7 µM	48.1 µM	88.3 µM	28.2 µM	24.2 µM	> 100 µM	57.6 µM	> 100 µM	39.5 µM	66.2 µM	–
c1cn(C23C4C5C6C4C2C6C53)cn1 (stereo unspecified)	> 100 µM	> 100 µM	> 100 µM	> 100 µM	> 100 µM	> 100 µM	> 100 µM	> 100 µM	> 100 µM	> 100 µM	–
C=C(C)C(O)C(O)c1c(OC)ccc2ccc(=O)oc12 (stereo unspecified)	> 100 µM	> 100 µM	> 100 µM	> 100 µM	> 100 µM	> 100 µM	> 100 µM	> 100 µM	> 100 µM	> 100 µM	–
COc1ccc(-n2c(=O)n(C)c(=O)n2-c2ccc(OC)cc2)cc1	> 100 µM	> 100 µM	> 100 µM	> 100 µM	> 100 µM	> 100 µM	> 100 µM	> 100 µM	> 100 µM	> 100 µM	–
Oc1c([Si](c2ccccc2)(c2ccccc2)c2ccccc2)cc2ccccc2c1-c1c(O)c([Si](c2ccccc2)(c2ccccc2)c2ccccc2)cc2ccccc12	> 100 µM	> 100 µM	> 100 µM	> 100 µM	> 100 µM	> 100 µM	> 100 µM	> 100 µM	> 100 µM	> 100 µM	–
COC1OC2COC1(OC)C1OC(C)(C)OC21 (stereo unspecified)	> 100 µM	> 100 µM	> 100 µM	> 100 µM	> 100 µM	> 100 µM	> 100 µM	> 100 µM	> 100 µM	> 100 µM	–
S=C1SCN(Cc2ccco2)CN1c1ccc(Br)cc1	32 µM	> 100 µM	15.9 µM	36 µM	94.8 µM	47.4 µM	29.2 µM	93.9 µM	40.7 µM	65.9 µM	–
O=C(Nc1ccccc1)N(CCCCN(Cc1ccccc1)C(=O)Nc1ccccc1)Cc1ccccc1	> 100 µM	> 100 µM	> 100 µM	> 100 µM	> 100 µM	> 100 µM	> 100 µM	> 100 µM	> 100 µM	> 100 µM	–
CC(=O)Nc1ccc(OC2=CCN(C)CC2)cc1	> 100 µM	> 100 µM	> 100 µM	> 100 µM	> 100 µM	> 100 µM	> 100 µM	> 100 µM	> 100 µM	> 100 µM	–
O=C(O)c1ccn(-c2cccc(-n3ccc(C(=O)O)n3)n2)n1	> 100 µM	> 100 µM	> 100 µM	> 100 µM	> 100 µM	> 100 µM	> 100 µM	> 100 µM	> 100 µM	> 100 µM	–
COC(=O)c1c(O)ccc2c1c1c(n2Cc2cccc(C)c2)C(=O)c2ccccc2C1=O	3.04 µM	34.9 µM	35 µM	23.3 µM	33.7 µM	17.5 µM	26 µM	21.9 µM	25.9 µM	25.2 µM	–
CCCC(=O)NC(Nc1ccc(S(=O)(=O)Nc2nc(C)cc(C)n2)cc1)(C(F)(F)F)C(F)(F)F	> 100 µM	> 100 µM	> 100 µM	> 100 µM	> 100 µM	> 100 µM	> 100 µM	> 100 µM	> 100 µM	> 100 µM	–
CCOC(=O)C(NC(=O)CC)(Nc1cc(C)on1)C(F)(F)F (stereo unspecified)	> 100 µM	> 100 µM	> 100 µM	> 100 µM	> 100 µM	> 100 µM	> 100 µM	> 100 µM	> 100 µM	> 100 µM	–
O=c1ccn(CC2(CO)CC(Cc3ccccc3)C2)c(=O)[nH]1 (stereo unspecified)	> 100 µM	> 100 µM	> 100 µM	> 100 µM	> 100 µM	> 100 µM	> 100 µM	> 100 µM	> 100 µM	> 100 µM	–
Cc1ccc2c(c1C)C(=O)/C(=C/c1ccccc1C(=O)O)C2	> 100 µM	> 100 µM	> 100 µM	> 100 µM	> 100 µM	> 100 µM	> 100 µM	> 100 µM	> 100 µM	> 100 µM	–
O=C(OCCN=c1c2ccccc2ccc2ccccc12)c1ccc([N+](=O)[O-])cc1	> 100 µM	> 100 µM	> 100 µM	> 100 µM	> 100 µM	> 100 µM	> 100 µM	> 100 µM	> 100 µM	> 100 µM	–
CC(C)C(OC(=O)c1ccc(NCc2cc(O)ccc2O)cc1)C(C)C	5.56 µM	8.09 µM	4.12 µM	5.59 µM	12.9 µM	0.956 µM	6.56 µM	3.77 µM	5.3 µM	3.62 µM	–
CCOC(=O)c1cc2c3c(c(C(C)=O)c(O)c2[nH]1)N(CC(C)CC)CC3 (stereo unspecified)	> 100 µM	51.4 µM	> 100 µM	> 100 µM	> 100 µM	> 100 µM	> 100 µM	> 100 µM	> 100 µM	> 100 µM	–
